Among the data in patent US9926281B2 (priority 2014, dated 2018) are IC50 values, retold here.

Test [1] concerns the target human TACE (Homo sapiens (Human), UniProt P78536). Particulars: read-out: TACE potency IC50.
In test [2] the target is human ADAMTS-5 (Homo sapiens (Human), UniProt Q9UNA0). Particulars: read-out: hADAMTS-5 potency IC50.
Description: Finally, the fluorescence is read on the Envision (Perkin Elmer) after an incubation of 90 min at 37° C.

Some results are limits rather than exact numbers.

Chain of human ADAMTS-5 (Q9UNA0 262-930): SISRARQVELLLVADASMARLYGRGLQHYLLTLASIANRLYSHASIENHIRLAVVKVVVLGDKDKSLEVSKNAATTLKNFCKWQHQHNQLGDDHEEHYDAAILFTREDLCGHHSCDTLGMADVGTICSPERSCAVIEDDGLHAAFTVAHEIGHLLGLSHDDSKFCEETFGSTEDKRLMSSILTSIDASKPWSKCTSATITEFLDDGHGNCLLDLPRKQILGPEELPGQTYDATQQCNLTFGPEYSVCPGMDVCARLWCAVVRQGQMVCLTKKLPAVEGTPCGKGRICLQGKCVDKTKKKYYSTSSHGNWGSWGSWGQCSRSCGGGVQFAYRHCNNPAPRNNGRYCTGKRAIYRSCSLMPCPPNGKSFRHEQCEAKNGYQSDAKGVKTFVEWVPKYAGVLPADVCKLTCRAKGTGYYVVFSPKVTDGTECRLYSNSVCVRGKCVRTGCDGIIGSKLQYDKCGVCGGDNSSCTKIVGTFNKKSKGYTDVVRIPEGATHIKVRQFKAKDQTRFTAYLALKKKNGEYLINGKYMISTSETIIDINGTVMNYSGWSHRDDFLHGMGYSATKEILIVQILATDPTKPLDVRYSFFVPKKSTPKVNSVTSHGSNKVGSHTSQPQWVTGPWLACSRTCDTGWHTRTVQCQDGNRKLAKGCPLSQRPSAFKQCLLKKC
Chain of human TACE (P78536 whole entry, looked up, change not shown): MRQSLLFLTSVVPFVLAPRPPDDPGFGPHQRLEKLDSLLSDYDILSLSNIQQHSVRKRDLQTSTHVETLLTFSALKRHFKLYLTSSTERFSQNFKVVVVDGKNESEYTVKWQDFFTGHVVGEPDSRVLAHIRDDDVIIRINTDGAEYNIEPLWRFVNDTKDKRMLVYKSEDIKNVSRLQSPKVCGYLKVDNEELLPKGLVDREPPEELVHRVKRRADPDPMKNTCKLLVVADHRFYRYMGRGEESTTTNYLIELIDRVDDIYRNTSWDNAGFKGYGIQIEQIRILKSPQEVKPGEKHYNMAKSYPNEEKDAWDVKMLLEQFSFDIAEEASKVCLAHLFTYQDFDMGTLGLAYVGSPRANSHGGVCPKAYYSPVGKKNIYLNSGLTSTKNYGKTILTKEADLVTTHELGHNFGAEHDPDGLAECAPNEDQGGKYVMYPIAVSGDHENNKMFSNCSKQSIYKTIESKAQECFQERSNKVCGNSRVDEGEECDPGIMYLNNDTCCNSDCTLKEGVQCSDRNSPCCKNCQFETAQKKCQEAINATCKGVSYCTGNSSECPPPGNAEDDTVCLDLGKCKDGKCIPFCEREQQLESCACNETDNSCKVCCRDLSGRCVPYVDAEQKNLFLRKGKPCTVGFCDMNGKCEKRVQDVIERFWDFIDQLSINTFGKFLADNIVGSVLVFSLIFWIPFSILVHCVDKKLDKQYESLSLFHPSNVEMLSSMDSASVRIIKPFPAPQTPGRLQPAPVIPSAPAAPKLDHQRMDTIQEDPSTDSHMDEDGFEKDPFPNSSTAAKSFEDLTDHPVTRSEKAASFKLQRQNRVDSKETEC

With `CC(CC1(CCN)NC(=O)NC1=O)C(=O)N1CCN(c2ccc(F)c(F)c2)CC1` (stereo not shown) [Cpd 241, 5-(2-aminoethyl)-5-[3-[4-(3,4-difluorophenyl)piperazin-1-yl]-2-methyl-3-oxo-propyl]imidazolidine-2,4-dione], the figures for the half-inhibitory concentration (IC50) in test [1] and in test [2] were above 12000 nM and 232 nM, respectively.
On the same counts, the results for `C[C@H]1CN(C(=O)C(CO)CC2(C)NC(=O)NC2=O)CCN1c1cccc(F)c1` (stereo partly drawn) [Cpd 268, 5-[3-[(3S)-4-(3-fluorophenyl)-3-methyl-piperazin-1-yl]-2-(hydroxymethyl)-3-oxo-propyl]-5-methyl-imidazolidine-2,4-dione] are above 4000 nM and 62 nM.
On the same counts, the results for `C[C@H]1CN(C(=O)CCC2(C3CC3)NC(=O)NC2=O)CCN1c1cccnn1` (stereo partly drawn) [Cpd 302, 5-cyclopropyl-5-[3-(3S)-3-methyl-4-pyridazin-3-yl-piperazin-1-yl-3-oxo-propyl]imidazolidine-2,4-dione] are above 20000 nM and 776 nM.
As for `C[C@H]1CN(C(=O)CCC2(C3CC3)NC(=O)NC2=O)CCN1c1cccc(-c2cnccn2)c1` (stereo partly drawn) [Cpd 372, S-Cyclopropyl-5-{3-[(S)-3-methyl-4-(3-pyrazin-2-yl-phenyl)-piperazin-1-yl]-3-oxo-propyl}-imidazolidine-2,4-dione], the IC50 in test [1] was above 20000 nM; in test [2], 2390 nM.
On the same counts, the results for `C[C@@H](C[C@@]1(C2CC2)NC(=O)NC1=O)C(=O)N1CCN(c2cc(F)cc(-c3cn[nH]c3)c2)[C@@H](C)C1` [Cpd 379, 5-cyclopropyl-5-[3-[(3S)-4-[3-fluoro-5-(1H-pyrazol-4-yl)phenyl]-3-methyl-piperazin-1-yl]-2-methyl-3-oxo-propyl]imidazolidine-2,4-dione] are 1490 nM and 18 nM.
As to `CC(CC1(C2CN(C)C2)NC(=O)NC1=O)C(=O)N1CCN(c2ccc(F)c(F)c2)[C@@H](C)C1` (stereo partly drawn) [Cpd 399, 5-[3-[(3S)-4-(3,4-difluorophenyl)-3-methy-piperazin-1-yl]-2-methyl-3-oxo-propy]-5-(1-methylazetidin-3-yl)imidazolidine-2,4-dione], in test [2], the IC50 worked out at 163 nM.
Still for that read-out and setting: under `Cc1cc(N2CCN(C(=O)CCC3(CC(=O)NCCO)NC(=O)NC3=O)CC2)ccc1Cl` (stereo not shown) [Cpd 402, 2-[4-[3-[4-(4-chloro-3-methyl-phenyl)piperazin-1-yl]-3-oxo-propyl]-2,5-dioxo-imidazolidin-4-yl]-N-(2-hydroxyethyl)acetamide] stands 732 nM.
With `CN(C)CCC1(CCC(=O)N2CCN(c3cccc(Cl)c3)CC2)NC(=O)NC1=O` (stereo not shown) [compound 44, 5-[3-[4-(3-chlorophenyl)piperazin-1-yl]-3-oxo-propyl]-5-(2-dimethylaminoethyl)imidazolidine-2,4-dione], in test [1], the IC50 is above 20000 nM.
Regarding `CNc1ccccc1N1CCN(C(=O)CCC2(C3CC3)NC(=O)NC2=O)CC1` (stereo not shown) [compound 185, 5-cyclopropyl-5-[3-[4-[2-(methylamino)phenyl]piperazin-1-yl]-3-oxo-propyl]imidazolidine-2,4-dione], in test [2], the half-maximal inhibitory concentration (IC50) is above 4000 nM.
The same measure, in the same setting: under `Cc1cc(Cl)c(F)cc1N1CCN(C(=O)CCC2(C)NC(=O)NC2=O)C[C@@H]1C` (stereo partly drawn) [compound 202, 5-[3-[(3S)-4-(4-chloro-5-fluoro-2-methyl-phenyl)-3-methyl-piperazin-1-yl]-3-oxo-propyl]-5-methyl-imidazolidine-2,4-dione] stands 724 nM.
As for `COCCOCC1(CC(C)C(=O)N2CCN(c3cc(Cl)cc(Cl)c3)[C@@H](C)C2)NC(=O)NC1=O` (stereo partly drawn) [compound 221, 5-[3-[(3S)-4-(3,5-dichlorophenyl)-3-methyl-piperazin-1-yl]-2-methyl-3-oxo-propyl]-5-(2-methoxyethoxymethyl)imidazolidine-2,4-dione], the half-maximal inhibitory concentration (IC50) in test [1] was 3200 nM.
`Cc1cc(CC(CC2(C)NC(=O)NC2=O)C(=O)N2CCN(c3cc(Cl)cc(Cl)c3)CC2)n(C)n1` (stereo not shown) [compound 238, 5-[3-[4-(3,5-dichlorophenyl)piperazin-1-yl]-2-[(2,5-dimethylpyrazol-3-yl)methyl]-3-oxo-propyl]-5-methyl-imidazolidine-2,4-dione]: the IC50 in test [1] worked out at 3160 nM; in test [2] it was 141 nM.
As to `CC(CC1(C2CN(C(=O)OC(C)(C)C)C2)NC(=O)NC1=O)C(=O)N1CCN(c2ccc(F)c(F)c2)[C@@H](C)C1` (stereo partly drawn) [compound 239, tert-butyl 3-[4-[3-[(3S)-4-(3,4-difluorophenyl)-3-methyl-piperazin-1-yl]-2-methyl-3-oxo-propyl]-2,5-dioxo-imidazolidin-4-yl]azetidine-1-carboxylate], the values for the IC50 in test [1] and in test [2] were above 4000 nM and 46 nM, respectively.
The like results for `CC(CC1(C2CNC2)NC(=O)NC1=O)C(=O)N1CCN(c2ccc(F)c(F)c2)CC1` (stereo not shown) [compound 240, 5-(azetidin-3-yl)-5-[3-[4-(3,4-difluorophenyl)piperazin-1-yl]-2-methyl-3-oxo-propyl]imidazolidine-2,4-dione] were, in that order, above 20000 nM and 194 nM.
Regarding `CC(CC1(C)NC(=O)NC1=O)C(=O)N1C[C@@H](C)N(c2cc(Cl)cc(Cl)c2)[C@@H](C)C1` (stereo partly drawn) [compound 243, 5-[3-[(3R,5S)-4-(3,5-dichlorophenyl)-3,5-dimethyl-piperazin-1-yl]-2-methyl-3-oxo-propyl]-5-methyl-imidazolidine-2,4-dione], the IC50 in test [1] was above 19500 nM; in test [2] it was above 3890 nM.
In the case of `CC(CC1(c2ccccn2)NC(=O)NC1=O)C(=O)N1CCN(c2ccc(F)c(Cl)c2)[C@@H](C)C1` (stereo partly drawn) [compound 245, 5-[3-[(3S)-4-(3-chloro-4-fluoro-phenyl)-3-methyl-piperazin-1-yl]-2-methyl-3-oxo-propyl]-5-(2-pyridyl)imidazolidine-2,4-dione], in test [2], the IC50 worked out at 17 nM.
Regarding `CC(CC1(CN2CCOCC2)NC(=O)NC1=O)C(=O)N1CCN(c2cc(Cl)cc(Cl)c2)[C@@H](C)C1` (stereo partly drawn) [compound 246, 5-[3-[(3S)-4-(3,5-dichlorophenyl)-3-methyl-piperazin-1-yl]-2-methyl-3-oxo-propyl]-5-(morpholinomethyl)imidazolidine-2,4-dione], the figures for the half-inhibitory concentration (IC50) in test [1] and in test [2] were above 19500 nM and 114 nM, respectively.
On to `CC(=O)N1CC(C2(CC(C)C(=O)N3CCN(c4ccc(F)c(F)c4)CC3)NC(=O)NC2=O)C1` (stereo not shown) [compound 248, 5-(1-acetylazetidin-3-yl)-5-[3-[4-(3,4-difluorophenyl)piperazin-1-yl]-2-methyl-3-oxo-propyl]imidazolidine-2,4-dione], for which the concentration for half-maximal inhibition (IC50) in test [1] was above 3780 nM; in test [2], 49 nM.
The like results for `CC(CC1(CN2CCC(F)(F)C2)NC(=O)NC1=O)C(=O)N1CCN(c2cc(Cl)cc(Cl)c2)CC1` (stereo not shown) [compound 252, 5-[3-[4-(3,5-dichlorophenyl)piperazin-1-yl]-2-methyl-3-oxo-propyl]-5-[(3,3-difluoropyrrolidin-1-yl)methyl]imidazolidine-2,4-dione] were, in that order, 2690 nM and 67 nM.
On the same counts, the results for `CC(CC1(CN2CCC(F)(F)C2)NC(=O)NC1=O)C(=O)N1CCN(c2ccc(F)c(Cl)c2)[C@@H](C)C1` (stereo partly drawn) [compound 253, 5-[3-[(3S)-4-(3-chloro-4-fluoro-phenyl)-3-methyl-piperazin-1-yl]-2-methyl-3-oxo-propyl]-5-[(3,3-difuoropyrrolidin-1-yl)methyl]imidazolidine-2,4-dione] are above 20000 nM and 35 nM.
Consider `CC1(CC(CC#N)C(=O)N2CCN(c3cc(Cl)cc(Cl)c3)CC2)NC(=O)NC1=O` (stereo not shown) [compound 254, 4-[4-(3,5-dichlorophenyl)piperazin-1-yl]-3-[(4-methyl-2,5-dioxo-imidazolidin-4-yl)methyl]-4-oxo-butanenitrile], for which the values for the 50% inhibitory concentration (IC50) in test [1] and in test [2] were 1000 nM and 71 nM, respectively.
`Cc1c(Cl)cc(F)cc1N1CCN(C(=O)CCC2(C)NC(=O)NC2=O)CC1` (stereo not shown) [compound 293, 5-[3-[4-(3-chloro-5-fluoro-2-methyl-phenyl)piperazin-1-yl]-3-oxo-propyl]-5-methyl-imidazolidine-2,4-dione]: the IC50 in test [2] came to 294 nM.
With `C[C@H]1CN(C(=O)CCC2(C3CC3)NC(=O)NC2=O)CCN1c1ccc2ncsc2c1` (stereo partly drawn) [compound 305, 5-[3-[(3S)-4-(1,3-benzothiazol-6-yl)-3-methyl-piperazin-1-yl]-3-oxo-propyl]-5-cyclopropyl-imidazolidine-2,4-dione], the half-inhibitory concentration (IC50) in test [1] was above 20000 nM.
For the compound `Cc1cc(N2CCN(C(=O)CC[C@@]3(C)NC(=O)NC3=O)CC2)cc(C)c1Cl` [compound 401, (5R)-5-[3-[4-(4-chloro-3,5-dimethyl-phenyl)piperazin-1-yl]-3-oxo-propyl]-5-methyl-imidazolidine-2,4-dione], the concentration for half-maximal inhibition (IC50) in test [2] turned out to be 1120 nM.
On the same count and under the same terms, under `C[C@@H]1CN(C(=O)CC[C@@]2(C3CC3)NC(=O)NC2=O)CCN1c1cc(F)cc(F)c1` [compound 403, (5S)-5-cyclopropyl-5-[3-[(3R)-4-(3,5-difluorophenyl)-3-methyl-piperazin-1-yl]-3-oxo-propyl]imidazolidine-2,4-dione] stands 168 nM; under `COCCOCC1(CC(C)C(=O)N2CCN(c3cc(Cl)cc(Cl)c3)[C@@H](C)C2)NC(=O)NC1=O` (stereo partly drawn) [compound 426, 5-(3-((S)-4-(3,5-dichlorophenyl)-3-methylpiperazin-1-yl)-2-methyl-3-oxopropyl)-5-((2-methoxyethoxy)methyl)imidazolidine-2,4-dione], 110 nM; under `CC(CC1(c2ccccn2)NC(=O)NC1=O)C(=O)N1CCN(c2ccc(F)c(Cl)c2)[C@@H](C)C1` (stereo partly drawn) [compound 437, 5-(3-((S)-4-(3-chloro-4-fluorophenyl)-3-methylpiperazin-1-yl)-2-methyl-3-oxopropyl)-5-(pyridin-2-yl)imidazolidine-2,4-dione], 17 nM.
Same read-out and setting: under `Cc1cccc(C2(CCC(=O)N3CCN(c4ccc(Cl)c(Cl)c4)[C@@H](C)C3)NC(=O)NC2=O)n1` (stereo partly drawn) [compound 452, 5-[3-[(3S)-4-(3,4-dichlorophenyl)-3-methyl-piperazin-1-yl]-3-oxo-propyl]-5-(6-methyl-2-pyridyl)imidazolidine-2,4-dione] stands 23 nM; under `C[C@H]1CN(C(=O)CCC2(c3ccccn3)NC(=O)NC2=O)CCN1c1ccc(F)c(Cl)c1` (stereo partly drawn) [compound 457, 5-[3-[(3S)-4-(3-chloro-4-fluoro-phenyl)-3-methyl-piperazin-1-yl]-3-oxo-propyl]-5-(2-pyridyl)imidazolidine-2,4-dione], 47 nM.

The IC50 is the concentration at which inhibition is half-maximal.
